This note sets out measurements from patent US20120040965A1, “SUBSTITUTED AZEPINO[4,3-B]INDOLES, PHARMACOLOGICAL COMPOSITION AND A METHOD FOR THE PRODUCTION AND USE THEREOF” (priority 2006, published 2012).

In test [1] the test system is cytosolic calcium ions concentration in cells. The test is described as follows: Histamine-induced calcium streams in SK-N-SH cells, Phase 2 (acceleration of cytosolic calcium removal). The format is cell-based. As to conditions: Homo sapiens, Phase 2: acceleration of intraplasmatic calcium removal, histamine 10 μM, read-out: pIC50 Phase 2 (converted). As for the experimental part:
(§1) Tests of biological activity of compounds of general formula 1. In order to determine a physiological activity of the proposed compounds a focused library was compiled to include compounds of general formula 1, some of which are shown in Table 2 below. The compounds were tested as potential histamine H1 receptor antagonists, and their ability to regulate cytosolic calcium ions concentration in cells by blocking calcium channels regulated by intracellular calcium repositories was determined. Cells SK-N-SH (ATCC, USA) were grown on DMEM medium (Invitrogen, USA), containing 10% fetal calf serum (FBS) and antibiotic penicillin-streptomycin in CO2 incubator (5% CO2) until cell density was 1*10^5 cells/cm^2. The cells were removed from flask surface by reagent TrypLE Express (Invitrogen, USA), collected by centrifugation and resuspended in medium Hybridoma Serum Free Medium (HSFM, Sigma, USA) in concentration of 4*10^6 cells/ml. For measurement of cytosolic calcium concentration the cells were loaded with calcium sensitive fluorescent dye Fura 2 AM (Invitrogen, USA) by means of hatching of cells with a dye in suspension for 30 minutes at room temperature. The cells were collected by centrifugation, resuspended in HSFM, incubated in suspension for 15 minutes, collected by centrifugation, washed twice in HSFM and resuspended in HSFM in concentration of 4*10^6 cells/ml.
(§2) Registration of calcium streams in cells was carried out using spectrofluorometer Shimadzu-RF5301PC. The cells were diluted with buffer (NaCl 0.145 M, KCl 0.0054 M, NaH2PO4 0.001 M, MgSO4 0.0008 M, CaCl2 0.0018 M, HEPES 0.03 M, D-glucose 0.0112 M pH 7.4) till concentration 1*10^5 cells/ml in measuring cuvette provided with magnetic stirrer, and fluorescence was registered using a regime of two-wave excitement (340 and 380 nm, respectively) at wavelength of emission 510 nm (F1 and F2, respectively). In 20 seconds after beginning of registration 10 mM of histamine water solution was added (final concentration is 10 μM). In another 30 seconds, after achievement of calcium cytosolic concentration peak a solution of tested compound in DMSO was added and registration was continued for 3 minutes. Serial dilutions of the compounds in dimethylsulfoxide (DMSO) were prepared for determination of their biological activity, and the effect of the concentration of compound on the calcium streams induced by histamine was determined.
(§3) Transformation of fluorescence signal into calcium concentration was carried out by means of equation imbedded in program Super Ion Probe (Shimadzu), for which maximum of free calcium concentration by addition of digitonin (Sigma, USA) up to concentration of 0.1 mg/ml and zero calcium concentration by addition of ethylenediamine-tetraacetate (EDTA) up to concentration of 10 mM were determined. Kinetic curves of cytosolic calcium decrease after addition of tested compound compared to concentration after addition of histamine were calculated using single-phase exponential model by means of Prism 4 (GraphPad Software, Inc.) program:
[Ca]=[Ca]max*exp(−K*T)+[Ca]min,
wherein T means time after addition of tested compound, [Ca]max and [Ca]min correspond to maximum (peak meaning after addition of histamine) and minimum (equilibrium level to which the curve converges after addition of tested compound) concentrations of cytosolic calcium, and K means a kinetic constant of the decrease of cytosolic calcium concentration which is calculated by minimization of the least squares of deviations.
The dependence of calculated constants of calcium decreasing (K) on the concentration of tested compound (C) was drawn up, and using this dependence by means of program Prism 4 the value of EC50 (concentration of tested compound corresponding to half-maximum increase of a kinetic constant of cytozoic calcium concentration decrease) was defined using four parametrical equation. […]

Test [2] concerns the target T1, histamine H1 receptor (Homo sapiens, UniProt P35367).
T1 construct: host or cells: SK-N-SH
The test is described as follows: Histamine-induced calcium streams in SK-N-SH cells, Phase 1 (H1 receptor antagonism). The format is cell-based. As to conditions: Phase 1: compounds prevent calcium ions entry in cells by antagonistic action on H1-receptors, histamine 10 μM, read-out: pIC50 Phase 1 (converted). How it is done: as §1, §2
as §3, with “program: […]” for “program:”
In Table 2 below the values corresponding to the reciprocal logarithm of EC50(−LogEC50=pEC50) for some of tested compounds of general formula 1 used as measures of these compounds activity are presented.

T1 sequence (P35367 whole entry): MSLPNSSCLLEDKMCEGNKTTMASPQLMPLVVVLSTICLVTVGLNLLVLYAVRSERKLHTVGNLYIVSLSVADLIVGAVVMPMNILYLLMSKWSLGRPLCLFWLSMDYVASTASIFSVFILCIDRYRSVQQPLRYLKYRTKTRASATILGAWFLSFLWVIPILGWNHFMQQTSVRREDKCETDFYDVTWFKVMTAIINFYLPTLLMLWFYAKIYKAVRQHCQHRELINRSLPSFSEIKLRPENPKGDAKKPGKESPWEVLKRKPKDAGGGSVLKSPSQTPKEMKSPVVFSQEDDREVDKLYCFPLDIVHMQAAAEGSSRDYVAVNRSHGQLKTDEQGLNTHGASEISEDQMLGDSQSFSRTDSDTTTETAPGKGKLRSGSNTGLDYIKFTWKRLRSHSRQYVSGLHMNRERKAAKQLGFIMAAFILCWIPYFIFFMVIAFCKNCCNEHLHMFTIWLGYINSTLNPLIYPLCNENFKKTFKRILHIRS

For the molecule `Cc1ccc2c(c1)[C@@H]1CN(C)CCC[C@H]1N2CCc1ccccn1` (relative stereo) [1.2.5(1), trans-2,9-dimethyl-6-[2-(pyridin-2-yl)ethyl]-1,2,3,4,5,5a,6,10b-octahydroazepino[4,3-b]indole], the values for the IC50 in test [1] and in test [2] were 2510 nM and 1000 nM, respectively.
For `Cc1ccc2c(c1)[C@@H]1CN(C)CCC[C@H]1N2CCc1ccc(C)nc1` (relative stereo) [1.2.5(2), trans-2,9-dimethyl-6-[2-(6-methylpyridin-3-yl)ethyl]-1,2,3,4,5,5a,6,10b-octahydroazepino[4,3-b]indole], in that order: 1000 nM and 251 nM.
For `Cc1ccc2c(c1)[C@@H]1CN(C)CCC[C@H]1N2CCc1ccncc1` (relative stereo) [1.2.5(3), trans-2,9-dimethyl-6-[2-(pyridin-4-yl)ethyl]-1,2,3,4,5,5a,6,10b-octahydroazepino[4,3-b]indole], in that order: 1000 nM and 158 nM.
For `Cc1ccc2c(c1)[C@@H]1CN(C)CCC[C@H]1N2CCc1cccnc1` (relative stereo) [1.2.5(4), trans-2,9-dimethyl-6-[2-(pyridin-3-yl)ethyl]-1,2,3,4,5,5a,6,10b-octahydroazepino[4,3-b]indole], in that order: 2510 nM and 158 nM.
Consider `CN1CCC[C@@H]2[C@@H](C1)c1cc(F)ccc1N2CCc1cccnc1` (relative stereo) [1.2.5(5), trans-2-methyl-6-[2-(pyridin-3-yl)ethyl]-9-fluoro-1,2,3,4,5,5a,6,10b-octahydroazepino[4,3-b]indole], for which the IC50 was 631 nM in test [1] and 126 nM in test [2].
For `CN1CCC[C@@H]2[C@@H](C1)c1cc(-c3ccncc3)ccc1N2CCc1cccnc1` (relative stereo) [1.2.5(6), trans-2-methyl-6-[2-(pyridin-3-yl)ethyl]-9-(pyridin-4-yl)-1,2,3,4,5,5a,6,10b-octahydroazepino[4,3-b]indole], in that order: 1000 nM and 251 nM.
Regarding `Cc1ccc2c(c1)[C@@H]1CN(C)CCC[C@H]1N2Cc1ccccc1` (relative stereo) [1.2.6(1), trans-6-benzyl-2,9-dimethyl-1,2,3,4,5,5a,6,10b-octahydroazepino[4,3-b]indole], the values for the IC50 in test [1] and in test [2] were 631 nM and 126 nM, respectively.
For `Cc1ccc2c(c1)[C@@H]1CN(C)CCC[C@H]1N2Cc1ccc(C(=O)O)cc1` (relative stereo) [1.2.6(2), trans-4-(2,9-dimethyl-1,2,3,4,5,5a,10b-octahydroazepino[4,3-b]indol-6-ylmethyl)benzoic acid], in that order: more than 100000 nM and more than 100000 nM.
For `Cc1ccc2c(c1)[C@@H]1CN(C)CCC[C@H]1N2CCc1ccccc1` (relative stereo) [1.2.6(3), trans-2,9-dimethyl-6-phenethyl-1,2,3,4,5,5a,6,10b-octahydroazepino[4,3-b]indole], in that order: 2000 nM and 158 nM.
In the case of `Cc1ccc2c(c1)[C@@H]1CN(C)CCC[C@H]1N2Cc1ccccn1` (relative stereo) [1.2.6(4), trans-2,9-dimethyl-6-(pyridin-2-ylmethyl)-1,2,3,4,5,5a,6,10b-octahydroazepino[4,3-b]indole], the IC50 in test [1] was 1580 nM; in test [2], 631 nM.
For `Cc1ccc2c(c1)[C@@H]1CN(C)CCC[C@H]1N2Cc1cccnc1` (relative stereo) [1.2.6(5), trans-2,9-dimethyl-6-(pyridin-3-ylmethyl)-1,2,3,4,5,5a,6,10b-octahydroazepino[4,3-b]indole], in that order: 1580 nM and 100 nM.
For `Cc1ccc2c(c1)[C@@H]1CN(C)CCC[C@H]1N2Cc1ccncc1` (relative stereo) [1.2.6(6), trans-2,9-dimethyl-6-(pyridin-4-ylmethyl)-1,2,3,4,5,5a,6,10b-octahydroazepino[4,3-b]indole], in that order: 5010 nM and 200 nM.
For `Cc1ccc2c(c1)[C@@H]1CN(C)CCC[C@H]1N2C(=O)c1ccccc1` (relative stereo) [1.2.7(3), trans-6-benzoyl-2,9-dim ethyl-1,2,3,4,5,5a,6,10b-octahydroazepino[4,3-b]indole], in that order: more than 100000 nM and more than 100000 nM.
With `CC(=O)N1c2ccc(C)cc2[C@@H]2CN(C)CCC[C@H]21` (relative stereo) [1.2.7(4), trans-6-acetyl-2,9-dimethyl-1,2,3,4,5,5a,6,10b-octahydroazepino[4,3-b]indole], the IC50 in test [1] and in test [2] was more than 100000 nM in each case.
In the case of `Cc1ccc2[nH]c3c(c2c1)CN(C)CCC3` [1.1.3.3(1), 2,9-dimethyl-1,2,3,4,5,6-hexahydroazepino[4,3-b]indole], the IC50 in test [1] and in test [2] was more than 100000 nM each time.
As to `Cc1ccc2[nH]c3c(c2c1)CN(C(=O)c1ccccc1)CCC3` [1.1.3.4(1), 2-benzoyl-9-methyl-1,2,3,4,5,6-hexahydroazepino[4,3-b]indole], the IC50 in test [1] and in test [2] was more than 100000 nM each time.
In the case of `Cc1ccc2[nH]c3c(c2c1)CN(C(=O)Nc1ccccc1)CCC3` [1.1.3.5(1), 2-phenylcarbamoyl-9-methyl-1,2,3,4,5,6-hexahydroazepino[4,3-b]indole], the IC50 in test [1] and in test [2] was more than 100000 nM each time.
As for `Cc1ccc2[nH]c3c(c2c1)CN(S(=O)(=O)c1ccccc1)CCC3` [1.1.3.6(1), 2-phenylsulfonyl-9-methyl-1,2,3,4,5,6-hexahydroazepino[4,3-b]indole], the IC50 in test [1] and in test [2] was more than 100000 nM in each case.
Turning to `Cc1ccc2c(c1)c1c(n2CCc2ccccn2)CCCN(C)C1` [1.1.5(1), 2,9-dimethyl-6-[2-(pyridin-2-yl)ethyl]-1,2,3,4,5,6-hexahydroazepino[4,3-b]indole], the IC50 in test [1] and in test [2] was 3160 nM in each case.
As for `Cc1ccc2c(c1)c1c(n2CCc2ccc(C)nc2)CCCN(C)C1` [1.1.5(2), 2,9-dimethyl-6-[2-(6-methylpyridin-3-yl)ethyl]-1,2,3,4,5,6-hexahydroazepino[4,3-b]indole], the results for the IC50 in test [1] and in test [2] were 1580 nM and 316 nM, respectively.
For `Cc1ccc2c(c1)c1c(n2CCc2ccncc2)CCCN(C)C1` [1.1.5(3), 2,9-dimethyl-6-[2-(pyridin-4-yl)ethyl]-1,2,3,4,5,6-hexahydroazepino[4,3-b]indole], the IC50 is 1260 nM in test [1] and 200 nM in test [2].
For `Cc1ccc2c(c1)c1c(n2CCc2cccnc2)CCCN(C)C1` [1.1.5(5)], in that order: 3160 nM and 501 nM.
